Changes are numbered by the printed parent chain. Read-outs that look alike come from different tables or passages of the source.

The target in assay [1] is T1, Drg1 (Saccharomyces cerevisiae, UniProt P32794, K563A).
T1 construct: gene AFG2; full-length type II AAA-ATPase, N-terminal GST-tag with PreScission site (plasmids derived from pAZ7), expressed in yeast from CUP1 promoter; Walker A mutants KA1 (K292A) and KA2 (K563A); hexamer in presence of nucleotide
T1 sequence (P32794 1-780 K563A): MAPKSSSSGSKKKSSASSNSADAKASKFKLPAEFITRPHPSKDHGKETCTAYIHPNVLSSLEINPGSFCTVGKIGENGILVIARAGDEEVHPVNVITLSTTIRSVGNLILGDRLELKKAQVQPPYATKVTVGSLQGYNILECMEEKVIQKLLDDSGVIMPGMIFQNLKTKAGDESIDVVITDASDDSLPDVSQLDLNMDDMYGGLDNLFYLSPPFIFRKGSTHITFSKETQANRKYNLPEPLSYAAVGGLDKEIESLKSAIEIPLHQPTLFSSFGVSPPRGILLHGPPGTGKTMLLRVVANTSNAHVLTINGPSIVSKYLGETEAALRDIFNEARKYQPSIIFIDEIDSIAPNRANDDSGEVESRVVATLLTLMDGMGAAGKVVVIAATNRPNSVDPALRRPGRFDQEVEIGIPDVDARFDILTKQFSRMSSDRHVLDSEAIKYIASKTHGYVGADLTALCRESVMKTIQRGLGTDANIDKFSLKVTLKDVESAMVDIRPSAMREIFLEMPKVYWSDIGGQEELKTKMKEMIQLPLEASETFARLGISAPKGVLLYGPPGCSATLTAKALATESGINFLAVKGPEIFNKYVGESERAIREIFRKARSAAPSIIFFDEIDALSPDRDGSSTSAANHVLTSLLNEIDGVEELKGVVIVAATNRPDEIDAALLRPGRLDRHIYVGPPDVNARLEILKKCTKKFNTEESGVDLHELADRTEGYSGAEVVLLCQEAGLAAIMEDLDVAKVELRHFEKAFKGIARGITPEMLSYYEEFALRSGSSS
The assay can be described thus: differential scanning fluorimetry. In kind it is binding. Background: DSF heats the sample and reads unfolding from a dye or from intrinsic fluorescence.

For assay [2], the target named is T2, Drg1 (Saccharomyces cerevisiae, UniProt P32794, K292A).
T2 construct: gene AFG2; full-length type II AAA-ATPase, N-terminal GST-tag with PreScission site (plasmids derived from pAZ7), expressed in yeast from CUP1 promoter; Walker A mutants KA1 (K292A) and KA2 (K563A); hexamer in presence of nucleotide
T2 sequence (P32794 1-780 K292A): T1 sequence (P32794 1-780 K563A) with K292A, A563K
Nature of the assay: differential scanning fluorimetry. The note with it: read-out: Kd(ATP). In kind it is binding.

By Kd is commonly meant the free concentration of one partner at which half of the binding sites on the other are occupied at equilibrium, for simple one-to-one binding. Consider `Nc1ncnc2c1ncn2[C@@H]1O[C@H](COP(=O)(O)OP(=O)(O)O)[C@@H](O)[C@H]1O` [ADP], for which, on Drg1 [1] (read-out: Kd(ADP)), the Kd was approximately 120 µM.
With `Nc1ncnc2c1ncn2[C@@H]1O[C@H](COP(=O)(O)OP(=O)(O)OP(=O)(O)O)[C@@H](O)[C@H]1O` [ATP], the Kd is approximately 80 µM at Drg1 [2] and approximately 20 µM on Drg1 [1] (read-out: Kd(ATP)).

Values taken from paper PMC5356007, “A conserved inter-domain communication mechanism regulates the ATPase activity of the AAA-protein Drg1” (Scientific Reports, 2017).
